Measurements from patent US4806532A, “Inhibition of epithelial phosphate transport” (Mayo Foundation for Medical Education and Research, priority 1985, dated 1989).
Counter-ions that a name gives are not always drawn.

Assays:
[1] = system: D-[^3 H]-glucose uptake by BBMV; assay: Na+-gradient-dependent uptake of D-[3H]-glucose by renal BBMV; assay type: biochemical, rat; details: 1 mM TPFA; mean ± SEM, n=4; control 66±15
Description: The brush border membrane vesicles (BBMV) were prepared from renal cortical tissue of adult male Sprague-Dawley rats of an average body weight of about 220 grams. Rats were fed ad libitum standard rat chow containing 0.7% Pi and had free access to distilled water. Rats were sacrificed under anesthesia and dissected renal cortical tissue was used for preparation of BBMV fraction by the divalent cation-precipitation procedure, employed and described in detail in J. Clin. Invest., 67, 1347 (1981) and J. Biol. Chem., 258, 5695 (1983), with the following modifications: (a) MgCl2 instead of CaCl2 was added to crude homogenate (final concentration 10 mM MgCl2) to precipitate membranes other than BBMV; (b) in the final step, BBMV were washed and equilibrated in a medium of pH=7.5, instead of pH=8.5. The enrichment and specific activities of typical BBM enzymes alkaline phosphatase (APases), γ-glutyamyl transferase (γ-GTT), leucineaminopeptidase (LAP) and maltase with use of these modifications were similar as in BBMV fractions prepared in our previous studies. […]
The BBMV uptake of ^32 Pi, D-[^3 H]-glucose, L-[^3 H]-proline and ^22 Na^+ was measured by means of a rapid filtration technique, as described in J. Clin. Invest., 67, 1347 (1981) and Am. […]

BBM enzymes APase = molecular target: T1, BBM enzymes APase (Rattus norvegicus, UniProt P08289); assay: Effect on BBM enzyme APase (data not shown); assay type: biochemical
T1 construct: from tissue; host or cells: renal brush border membrane vesicles (rat inferred)
T1 sequence (P08289 18-502 limits assumed): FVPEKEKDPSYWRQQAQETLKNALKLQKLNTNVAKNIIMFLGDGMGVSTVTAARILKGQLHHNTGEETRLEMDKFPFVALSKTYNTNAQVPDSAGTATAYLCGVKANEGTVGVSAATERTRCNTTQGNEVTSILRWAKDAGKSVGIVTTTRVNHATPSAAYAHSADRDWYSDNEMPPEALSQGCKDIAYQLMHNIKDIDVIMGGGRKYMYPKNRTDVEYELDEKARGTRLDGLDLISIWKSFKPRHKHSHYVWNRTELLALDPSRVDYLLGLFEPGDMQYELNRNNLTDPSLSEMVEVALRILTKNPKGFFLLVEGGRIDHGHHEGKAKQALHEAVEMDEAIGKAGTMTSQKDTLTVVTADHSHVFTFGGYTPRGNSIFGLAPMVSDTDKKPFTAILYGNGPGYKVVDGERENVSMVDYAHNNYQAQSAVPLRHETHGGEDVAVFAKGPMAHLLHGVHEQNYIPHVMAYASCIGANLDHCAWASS

Na-Pi cotransporter = molecular target: T2, Na-Pi cotransporter (Mus musculus, UniProt Q60825); assay: Na+-gradient-dependent 32Pi uptake by renal BBMV, mouse; assay type: biochemical
T2 construct: were prepared from renal cortices of mongrel dogs, albino mice and New Zealand albino rabbits; from tissue; host or cells: albino mouse renal cortex, brush border membrane vesicles
T2 sequence (Q60825 1-637): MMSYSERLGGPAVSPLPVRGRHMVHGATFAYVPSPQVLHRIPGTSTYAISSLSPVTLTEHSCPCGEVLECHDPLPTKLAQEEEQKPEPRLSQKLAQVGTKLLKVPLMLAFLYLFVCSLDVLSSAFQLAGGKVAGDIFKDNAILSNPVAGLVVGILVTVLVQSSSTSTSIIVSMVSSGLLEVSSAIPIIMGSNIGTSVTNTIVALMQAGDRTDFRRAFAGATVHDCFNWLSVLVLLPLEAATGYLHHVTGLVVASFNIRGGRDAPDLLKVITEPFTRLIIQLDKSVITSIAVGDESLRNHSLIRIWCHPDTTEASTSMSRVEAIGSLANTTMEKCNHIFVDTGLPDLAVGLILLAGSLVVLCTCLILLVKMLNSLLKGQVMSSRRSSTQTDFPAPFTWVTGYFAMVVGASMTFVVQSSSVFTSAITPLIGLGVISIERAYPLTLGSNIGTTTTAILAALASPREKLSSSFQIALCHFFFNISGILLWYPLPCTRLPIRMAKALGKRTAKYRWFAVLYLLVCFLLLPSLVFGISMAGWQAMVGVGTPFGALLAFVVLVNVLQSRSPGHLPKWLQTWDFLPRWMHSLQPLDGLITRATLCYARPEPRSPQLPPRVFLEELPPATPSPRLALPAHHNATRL
Description: The brush border membrane vesicles (BBMV) were prepared from renal cortical tissue of adult male Sprague-Dawley rats of an average body weight of about 220 grams. Rats were fed ad libitum standard rat chow containing 0.7% Pi and had free access to distilled water. Rats were sacrificed under anesthesia and dissected renal cortical tissue was used for preparation of BBMV fraction by the divalent cation-precipitation procedure, employed and described in detail in J. Clin. Invest., 67, 1347 (1981) and J. Biol. Chem., 258, 5695 (1983), with the following modifications: (a) MgCl2 instead of CaCl2 was added to crude homogenate (final concentration 10 mM MgCl2) to precipitate membranes other than BBMV; (b) in the final step, BBMV were washed and equilibrated in a medium of pH=7.5, instead of pH=8.5. The enrichment and specific activities of typical BBM enzymes alkaline phosphatase (APases), γ-glutyamyl transferase (γ-GTT), leucineaminopeptidase (LAP) and maltase with use of these modifications were similar as in BBMV fractions prepared in our previous studies. As a final step in the preparative procedure, the BBMV fraction was washed and resuspended in a medium containing 300 mM mannitol and 5 mM Tris-HEPES adjusted to pH=t.5, referred to as "MTH-medium," unless specified otherwise. The analogous BBMV fractions, using the same procedure, were prepared from renal cortices of mongrel dogs, albino mice and New Zealand albino rabbits.
The BBMV uptake of ^32 Pi, D-[^3 H]-glucose, L-[^3 H]-proline and ^22 Na^+ was measured by means of a rapid filtration technique, as described in J. Clin. Invest., 67, 1347 (1981) and Am. J. Physiol., 246, F133-F139 (1984). Also, unless specified otherwise, the medium for the solute uptake assay consisted of following compounds (in final concentrations): 100 mM mannitol, 100 mM NaCl (or 100 mM KC1) and 5 mM Tris-HEPES (pH=7.5) and eitehr 0.1 mM K2 H^32 PO4, or 0.05 mM D-[^3 H]-glucose, or 0.025 mM L-[^3 H]-proline. IN the ^22 Na^+ uptake studies, the assay medium contained 100 mM ^22 NaCl (^22 NaCl about […] per tube), 100 mM mannitol and 5 mM Tris-HEPES (pH 7.5).
In most experiments, the Na^+ -gradient-dependent ^32 Pi uptake in the concentrative "uphill" phase was measured at 20 seconds period. Since Na^+ -independent Pi uptake in this time period was quantitatively minor component (<5%) of the Na^+ -gradient-dependent Pi uptake, it was not routinely subtracted.

`O=C(O)P(=O)(O)O` [TPFA, Phosphonoformic acid, trisodium salt hexahydrate] was tested, and the “uptake of D-[3H]-glucose at 120 minutes” value [1] was 65±12 pmoles/mg protein, the “effect on BBM enzyme APase” value (BBM enzymes APase) was “without inhibitory effect” and the “32Pi-uptake 120 min” value (Na-Pi cotransporter; 1 mM TPFA, control 368 ± 7) was 390 ± 74 pmoles Pi/mg protein/time. For the same molecule, the “32Pi-uptake 20 sec” value (Na-Pi cotransporter; 1 mM TPFA, control 824 ± 9) was 299 ± 8 pmoles Pi/mg protein/time, the “32Pi-uptake 20 sec” value (Na-Pi cotransporter; 5 mM TPFA) was 97 ± 7 pmoles Pi/mg protein/time and the “32Pi-uptake 120 min” value (Na-Pi cotransporter; 5 mM TPFA) was 404 ± 12 pmoles Pi/mg protein/time. It also gave an inhibition at 1000 µM (Na-Pi cotransporter; 20 s, 1 mM TPFA, read-out: percent decrease of 20 sec 32Pi-uptake relative to control value) of 63.7% and an inhibition at 5000 µM (Na-Pi cotransporter; 20 s, 5 mM TPFA, read-out: percent decrease of 20 sec 32Pi-uptake relative to control value) of 88.2%.
